Where a name gives a salt, the structure may show the parent alone.
Test system: dermatitis in psoriasis model mice
Assay: Auricular thickening in imiquimod-induced psoriasis model mice (Test Examples 1 to 7)
Assay type: in vivo, male BALB/cCrSlc mice
Details: oral, Day 0 to Day 3
Experimental: 15 mg/ear of imiquimod cream (product name: Beselna cream, manufactured by Mochida Pharmaceutical Co., Ltd.) was repeatedly applied to the right auricle of male BALB/cCrSlc mice (9 weeks old) at once a day for 4 days (Day 0 to Day 3) to prepare psoriasis model mice. One hour before the imiquimod application, Vehicle (0.5% methylcellulose (hereinafter abbreviated as 0.5% MC)), 3 mg/kg body weight MSP (5-HT4 receptor agonist), 3 mg/kg body weight RZT (5-HT1 receptor agonist), 3 mg/kg body weight TDS (5-HT1 receptor agonist), 3 mg/kg body weight LCS (5-HT2 receptor agonist), and 10 mg/kg body weight APR (positive control) were orally administered at 10 mL/kg body weight each (Day 0 to Day 3) (n=6 per administration group). The auricular thickness was measured before the imiquimod cream application (Day 0) and approximately 24 hours after the final administration of each evaluation substance (Day 1 to Day 4), and the difference in auricular thickness (auricular thickening) between Day 0 and Day 4 was evaluated as the degree of inflammation. Day 0 was defined as the day on which the imiquimod cream application was started.
(§1) Psoriasis model mice were prepared by the same method as in Test Example 1, and Vehicle (0.5% MC), 3 mg/kg body weight MSP, 30 mg/kg body weight MSP, and 10 mg/kg body weight APR (positive control) were orally administered at 10 mL/kg body weight each (Day 0 to Day 3) (n=6 per administration group). The difference in auricular thickness (auricular thickening) between Day 0 and Day 4 was evaluated as the degree of inflammation.
as §1, with “weight MSP, 3 mg/kg body weight PCP, 10 mg/kg body weight PCP, 30 mg/kg” for “weight MSP, 30 mg/kg”, “body weight PCP, 3 mg/kg body weight VRG, 10 mg/kg body weight VRG, 30 mg/kg body weight VRG, and 10” for “body weight MSP, and 10”, “10 mL/kg each (Day” for “10 mL/kg body weight each (Day”
as §1, with “(0.5% MC), 30 mg/kg body” for “(0.5% MC), 3 mg/kg body”, “body weight CNP, 30 mg/kg body weight VRG, 30 mg/kg body weight CBP, and 10” for “body weight MSP, and 10”
as §1, with “MC),” for “MC), 3 mg/kg body weight MSP,”, “PCP, 30 mg/kg body weight CSP, 30 mg/kg body weight TGR,” for “MSP,”
Psoriasis model mice were prepared by the same method as in Test Example 1, and Vehicle (0.5% MC), 30 mg/kg body weight FCT, 30 mg/kg body weight UMP, 30 mg/kg body weight RLP, 30 mg/kg body weight RZP, 30 mg/kg body weight MSP, and 10 mg/kg body weight APR (positive control) were orally administered at 10 mL/kg body weight each (Day 0 to Day 3) (n=6 per administration group). The difference in auricular thickness (auricular thickening) between Day 0 and Day 4 was evaluated as the degree of inflammation.
Psoriasis model mice were prepared by the same method as in Test Example 1, and Vehicle (0.5% MC), 30 mg/kg body weight NRP, 30 mg/kg body weight CJ-033466, 30 mg/kg body weight RVP, 30 mg/kg body weight E-3620, 30 mg/kg body weight MSP, and 10 mg/kg body weight APR (positive control) were orally administered at 10 mL/kg body weight each (Day 0 to Day 3) (n=6 per administration group). […]

[1] = Test Example 6, FIG. 6, 30 mg/kg body weight
[2] = Test Example 1, FIG. 1, 3 mg/kg body weight
[3] = Test Example 4, FIG. 4, 30 mg/kg body weight
[4] = Test Example 5, FIG. 5, 30 mg/kg body weight
[5] = Test Example 3, FIG. 3, at all doses (3, 10 and 30 mg/kg body weight)
[6] = Test Example 7, FIG. 7, 30 mg/kg body weight

Compound: CCOc1cc([C@@H](CS(C)(=O)=O)N2C(=O)c3cccc(NC(C)=O)c3C2=O)ccc1OC [APR, Apremilast]
- auricular thickening (difference in auricular thickness between Day 0 and Day 4) compared with 0.5% MC (Test Example 1, FIG. 1, 10 mg/kg body weight): significantly suppressed the auricular thickening
- auricular thickening (difference in auricular thickness between Day 0 and Day 4) compared with 0.5% MC (Test Example 3, FIG. 3, 10 mg/kg body weight): significantly suppressed the auricular thickening
- auricular thickening (difference in auricular thickness between Day 0 and Day 4) compared with 0.5% MC (Test Example 4, FIG. 4, 10 mg/kg body weight): significantly suppressed the auricular thickening
- auricular thickening (difference in auricular thickness between Day 0 and Day 4) compared with 0.5% MC (Test Example 5, FIG. 5, 10 mg/kg body weight): significantly suppressed the auricular thickening
- auricular thickening (difference in auricular thickness between Day 0 and Day 4) compared with 0.5% MC (Test Example 6, FIG. 6, 10 mg/kg body weight): significantly suppressed the auricular thickening
- auricular thickening (difference in auricular thickness between Day 0 and Day 4) compared with 0.5% MC (Test Example 7, FIG. 7, 10 mg/kg body weight): significantly suppressed the auricular thickening

Compound: COCCCN1CCC(c2nnc(-c3nn(C(C)C)c4ccccc34)o2)CC1 [UMP, Usmarapride]
- auricular thickening (difference in auricular thickness between Day 0 and Day 4) compared with 0.5% MC [1]: significantly suppressed the auricular thickening

Compound: C[C@H]1CNCCc2ccc(Cl)cc21 [LCS, Lorcaserin hydrochloride]
- auricular thickening (difference in auricular thickness between Day 0 and Day 4) compared with 0.5% MC [2]: none of 3 mg/kg body weight RZT (5-HT1 receptor agonist) (comparative example), 3 mg/kg body weight TDS (5-HT1 receptor agonist) (comparative example), and 3 mg/kg body weight LCS (5-HT2 receptor agonist) (comparative example) suppressed the auricular thickening

Compound: COc1cc(N)c(Cl)cc1C(=O)NCC1CCN(CC[C@H](OC(N)=O)c2ccc(F)cc2)CC1.Cl [RLP, Relenopride hydrochloride]
- auricular thickening (difference in auricular thickness between Day 0 and Day 4) compared with 0.5% MC [1]: significantly suppressed the auricular thickening

Compound: Cinitapride tartrate [CNP]
- auricular thickening (difference in auricular thickness between Day 0 and Day 4) compared with 0.5% MC [3]: significantly suppressed the auricular thickening

Compound: COc1cc(N)c(Cl)cc1C(=O)NC1CCN(CCCOc2ccc(F)cc2)CC1OC (stereo not shown) [CSP, Cisapride]
- auricular thickening (difference in auricular thickness between Day 0 and Day 4) compared with 0.5% MC [4]: significantly suppressed the auricular thickening

Compound: Tandospirone citrate [TDS]
- auricular thickening (difference in auricular thickness between Day 0 and Day 4) compared with 0.5% MC [2]: none of 3 mg/kg body weight RZT (5-HT1 receptor agonist) (comparative example), 3 mg/kg body weight TDS (5-HT1 receptor agonist) (comparative example), and 3 mg/kg body weight LCS (5-HT2 receptor agonist) (comparative example) suppressed the auricular thickening

Compound: CN(C)CCc1c[nH]c2ccc(Cn3cncn3)cc12 [RZT, Rizatriptan benzoate]
- auricular thickening (difference in auricular thickness between Day 0 and Day 4) compared with 0.5% MC [2]: none of 3 mg/kg body weight RZT (5-HT1 receptor agonist) (comparative example), 3 mg/kg body weight TDS (5-HT1 receptor agonist) (comparative example), and 3 mg/kg body weight LCS (5-HT2 receptor agonist) (comparative example) suppressed the auricular thickening

Compound: CC(C)n1c(=O)c(C(=O)N[C@H]2C[C@H]3CC[C@@H](C2)N3C[C@@H](O)CN(C)S(C)(=O)=O)cc2ccccc21 [VRG, Velusetrag]
- auricular thickening (difference in auricular thickness between Day 0 and Day 4) compared with 0.5% MC [5]: significantly suppressed the auricular thickening at all doses
- auricular thickening (difference in auricular thickness between Day 0 and Day 4) compared with 0.5% MC [3]: significantly suppressed the auricular thickening

Compound: Mosapride citrate dihydrate [MSP]
- auricular thickening (difference in auricular thickness between Day 0 and Day 4) compared with 0.5% MC [2]: significantly suppressed the auricular thickening
- auricular thickening (difference in auricular thickness between Day 0 and Day 4) compared with 0.5% MC (Test Example 2, FIG. 2, 3 mg/kg body weight): significantly suppressed the auricular thickening in a dose-dependent manner
- auricular thickening (difference in auricular thickness between Day 0 and Day 4) compared with 0.5% MC (Test Example 2, FIG. 2, 30 mg/kg body weight): significantly suppressed the auricular thickening in a dose-dependent manner
- auricular thickening (difference in auricular thickness between Day 0 and Day 4) compared with 0.5% MC (Test Example 3, FIG. 3, 3 mg/kg body weight): significantly suppressed the auricular thickening
- auricular thickening (difference in auricular thickness between Day 0 and Day 4) compared with 0.5% MC [3]: significantly suppressed the auricular thickening
- auricular thickening (difference in auricular thickness between Day 0 and Day 4) compared with 0.5% MC [1]: significantly suppressed the auricular thickening
- auricular thickening (difference in auricular thickness between Day 0 and Day 4) compared with 0.5% MC [6]: significantly suppressed the auricular thickening

Compound: [H]/N=C(/NCCCCC)N/N=C/c1c[nH]c2ccc(OC)cc12 [TGR, Tegaserod maleate]
- auricular thickening (difference in auricular thickness between Day 0 and Day 4) compared with 0.5% MC [4]: significantly suppressed the auricular thickening

Compound: COc1cc(N)c(Cl)cc1C(=O)NC1CCN(Cc2ccccc2)CC1 [CBP, Clebopride malate]
- auricular thickening (difference in auricular thickness between Day 0 and Day 4) compared with 0.5% MC [3]: significantly suppressed the auricular thickening

Compound: COCCCN1CC[C@@H](CNC(=O)c2cc(Cl)c(N)c3c2OC(C)(C)C3)[C@H](O)C1 [RVP, Revexepride]
- auricular thickening (difference in auricular thickness between Day 0 and Day 4) compared with 0.5% MC [6]: significantly suppressed the auricular thickening

Compound: COC(=O)N1CCC(CN2CCC(CNC(=O)c3cccc4nc(C(C)C)[nH]c34)CC2)CC1 [FCT, Felcisetrag]
- auricular thickening (difference in auricular thickness between Day 0 and Day 4) compared with 0.5% MC [1]: significantly suppressed the auricular thickening

Compound: CC#C[C@H](C)Oc1cc(N)c(Cl)cc1C(=O)NC1C[C@H]2CC[C@@H](C1)N2C.Cl (stereo partly shown) [E-3620]
- auricular thickening (difference in auricular thickness between Day 0 and Day 4) compared with 0.5% MC [6]: significantly suppressed the auricular thickening

Compound: Prucalopride succinate [PCP]
- auricular thickening (difference in auricular thickness between Day 0 and Day 4) compared with 0.5% MC [5]: significantly suppressed the auricular thickening at all doses
- auricular thickening (difference in auricular thickness between Day 0 and Day 4) compared with 0.5% MC [4]: significantly suppressed the auricular thickening

Compound: Cc1cn2c(N)c(Cl)cc(C(=O)NCC3CCN(CC(C)C)CC3)c2n1 [CJ-033466]
- auricular thickening (difference in auricular thickness between Day 0 and Day 4) compared with 0.5% MC [6]: significantly suppressed the auricular thickening

Compound: COc1cc(N)c(Cl)cc1C(=O)N[C@@H]1CCN(CCCCCC(=O)O[C@H]2CN3CCC2CC3)C[C@@H]1OC [NRP, Naronapride hydrochloride]
- auricular thickening (difference in auricular thickness between Day 0 and Day 4) compared with 0.5% MC [6]: significantly suppressed the auricular thickening

Source: patent US20260000674A1, “PHARMACEUTICAL COMPOSITION” (GEXVal Inc., priority 2022, published 2026)
